Test results: ChEMBL document CHEMBL4251557 (Eur J Med Chem, 2017)

What was measured:
Neuraminidase [1] = biological target: Neuraminidase (Influenza A virus, UniProt A5Z252); test: Inhibition of Influenza A virus A/Anhui/1/2005(H5N1) neuraminidase using MUNANA as substrate preincubated for 5 to 15 mins followed by substrate addition measured after 30 mins by fluorescence assay
[2] = biological target: Neuraminidase (Influenza A virus) (UniProt A5Z252); conditions: Influenza A virus (A/Anhui/1/2005(H5N1)); at 10 µM
[3] = biological target: Neuraminidase (Influenza A virus) (UniProt A5Z252); conditions: Influenza A virus (A/Anhui/1/2005(H5N1)); at 100 µM
Neuraminidase [4] = biological target: T1, Neuraminidase (Influenza A virus, UniProt B4URF0); test: Inhibition of Influenza A virus A/California/04/2009(H1N1) neuraminidase using MUNANA as substrate preincubated for 5 to 15 mins followed by substrate addition measured after 30 mins by fluorescence assay
T1 sequence (B4URF0 whole entry): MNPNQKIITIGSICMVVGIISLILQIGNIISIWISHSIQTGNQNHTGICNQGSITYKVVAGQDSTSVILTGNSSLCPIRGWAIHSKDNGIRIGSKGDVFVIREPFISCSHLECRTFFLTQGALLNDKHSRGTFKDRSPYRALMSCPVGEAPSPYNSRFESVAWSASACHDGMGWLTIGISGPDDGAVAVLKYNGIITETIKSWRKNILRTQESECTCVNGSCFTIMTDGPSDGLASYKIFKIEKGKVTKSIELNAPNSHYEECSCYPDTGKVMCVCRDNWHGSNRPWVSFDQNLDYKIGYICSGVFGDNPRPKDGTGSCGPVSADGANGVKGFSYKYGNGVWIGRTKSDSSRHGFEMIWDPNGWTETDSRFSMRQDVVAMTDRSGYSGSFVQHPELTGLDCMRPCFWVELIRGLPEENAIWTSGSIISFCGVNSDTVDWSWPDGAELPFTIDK

Neuraminidase [5] = biological target: T1, Neuraminidase; test: Inhibition of Influenza A virus A/Anhui/1/2013(H7N9) neuraminidase 150 cavity at 10 uM using MUNANA as substrate preincubated for 5 to 15 mins followed by substrate addition measured after 30 mins by fluorescence assay relative to control

SMILES | IC50 (Neuraminidase [1]) [nM] | inhibition [2] [%] | inhibition [3] [%] | also measured
CCC(CC)O[C@@H]1C=C(C(=O)O)C[C@H](NC(=O)CF)[C@H]1NC(C)=O | 228 |  |  | 
CCC(CC)O[C@@H]1C=C(C(=O)O)C[C@H](NC(=O)Cc2c[nH]c3ccccc23)[C@H]1NC(C)=O |  | 12.8 | 47.3 | 
CCC(CC)O[C@@H]1C=C(C(=O)O)C[C@H](NC=O)[C@H]1NC(C)=O | 1290 |  |  | 
CCC(CC)O[C@@H]1C=C(C(=O)O)C[C@H](NC(=O)CN(C)C)[C@H]1NC(C)=O |  | 30 | 58.2 | 
CCC(CC)O[C@@H]1C=C(C(=O)O)C[C@H](NC(=O)C(F)(F)F)[C@H]1NC(C)=O | 266 |  |  | 
CCC(CC)O[C@@H]1C=C(C(=O)O)C[C@H](NC(=O)C(C)C)[C@H]1NC(C)=O |  | 14.2 | 47.6 | 
CCC(CC)O[C@@H]1C=C(C(=O)O)C[C@H](NC(=O)CN)[C@H]1NC(C)=O | 2670 |  |  | 
CCC(CC)O[C@@H]1C=C(C(=O)O)C[C@H](NC(=O)[C@@H](C)N)[C@H]1NC(C)=O |  | 18.8 | 49.3 | 
CCCCCC(=O)N[C@H]1CC(C(=O)O)=C[C@@H](OC(CC)CC)[C@@H]1NC(C)=O |  |  | 33.2 | 
CCCC(=O)N[C@H]1CC(C(=O)O)=C[C@@H](OC(CC)CC)[C@@H]1NC(C)=O |  | 14.7 | 66.8 | 
CCC(CC)O[C@@H]1C=C(C(=O)O)C[C@H](NC(=O)[C@H](O)CCc2ccccc2)[C@H]1NC(C)=O |  | 49.2 | 60.4 | 
CCCCC(=O)N[C@H]1CC(C(=O)O)=C[C@@H](OC(CC)CC)[C@@H]1NC(C)=O |  |  | 11.3 | 
CCC(CC)O[C@@H]1C=C(C(=O)O)C[C@H](NC(=O)/C=C/c2ccccc2)[C@H]1NC(C)=O |  | 14.5 | 50.2 | 
CCC(CC)O[C@@H]1C=C(C(=O)O)C[C@H](NC(=O)C(F)F)[C@H]1NC(C)=O | 190 |  |  | 
CCC(CC)O[C@@H]1C=C(C(=O)O)C[C@H](NC(C)=O)[C@H]1NC(C)=O | 238 |  |  | IC50 (Neuraminidase [4]): 16.5 nM; IC50 (Neuraminidase [5]): 59.5 nM
CCC(CC)O[C@@H]1C=C(C(=O)O)C[C@H](NC(=O)CCCc2ccccc2)[C@H]1NC(C)=O |  |  | 36 | 
CCC(CC)O[C@@H]1C=C(C(=O)O)C[C@H](NC(=O)CCc2ccccc2)[C@H]1NC(C)=O |  |  | 19.1 | 
CCC(CC)O[C@@H]1C=C(C(=O)O)C[C@H](NC(=O)Cc2ccc(C)cc2)[C@H]1NC(C)=O |  | 10 | 57.2 | 
C=CC(=O)N[C@H]1CC(C(=O)O)=C[C@@H](OC(CC)CC)[C@@H]1NC(C)=O | 2980 |  |  | 
CCOC(=O)C1=C[C@@H](OC(CC)CC)[C@H](NC(C)=O)[C@@H](N)C1 |  | 91 | 95.5 | 
CCC(=O)N[C@H]1CC(C(=O)O)=C[C@@H](OC(CC)CC)[C@@H]1NC(C)=O |  | 47.9 | 84.5 | 
